Results reported in patent US11787769B2 (priority 2019, dated 2023).
Where two headings read alike, the source gives them in different places.

Columns and labels:
[1] = tested on: influenza A virus (HA of H5N1, Goose/Qinghai/59/05); experiment: microbe, parasite or virus in culture; format: cell-based; conditions: Influenza A virus
[2] = Hepatic metabolic stability in human liver microsomes; conditions: human LM, in the presence of NADPH
[3] = tested on: PR8-NS1-Gluc virus; experiment: microbe, parasite or virus in culture; format: cell-based, influenza A PR8
[4] = biological target: CYP3A4 (Homo sapiens, UniProt P08684); experiment: biochemical
Chain of CYP3A4 (P08684 whole entry): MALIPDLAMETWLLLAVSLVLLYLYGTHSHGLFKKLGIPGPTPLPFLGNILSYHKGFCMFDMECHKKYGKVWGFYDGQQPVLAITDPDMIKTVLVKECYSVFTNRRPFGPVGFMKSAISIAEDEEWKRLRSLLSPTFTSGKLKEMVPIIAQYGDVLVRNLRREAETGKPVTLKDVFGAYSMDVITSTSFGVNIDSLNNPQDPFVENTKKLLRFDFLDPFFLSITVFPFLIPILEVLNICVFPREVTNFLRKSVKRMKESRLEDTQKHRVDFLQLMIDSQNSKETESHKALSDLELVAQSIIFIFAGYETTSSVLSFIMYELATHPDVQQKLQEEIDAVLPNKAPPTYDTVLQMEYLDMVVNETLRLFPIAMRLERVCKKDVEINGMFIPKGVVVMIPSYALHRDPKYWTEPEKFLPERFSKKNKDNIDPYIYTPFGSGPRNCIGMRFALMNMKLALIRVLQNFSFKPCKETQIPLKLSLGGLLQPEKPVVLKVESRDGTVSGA

[5] = tested on: PR8-PB2-Gluc, influenza A/Puerto Rico/8/1934 (PR8) H1N1 virus; experiment: microbe, parasite or virus in culture; format: cell-based; conditions: Influenza A virus, MDCK, read-out: EC50 (nM), antiviral activity in the infectious IAV
[6] = biological target: CYP2C9 (Homo sapiens, UniProt P11712); experiment: biochemical
Chain of CYP2C9 (P11712 whole entry): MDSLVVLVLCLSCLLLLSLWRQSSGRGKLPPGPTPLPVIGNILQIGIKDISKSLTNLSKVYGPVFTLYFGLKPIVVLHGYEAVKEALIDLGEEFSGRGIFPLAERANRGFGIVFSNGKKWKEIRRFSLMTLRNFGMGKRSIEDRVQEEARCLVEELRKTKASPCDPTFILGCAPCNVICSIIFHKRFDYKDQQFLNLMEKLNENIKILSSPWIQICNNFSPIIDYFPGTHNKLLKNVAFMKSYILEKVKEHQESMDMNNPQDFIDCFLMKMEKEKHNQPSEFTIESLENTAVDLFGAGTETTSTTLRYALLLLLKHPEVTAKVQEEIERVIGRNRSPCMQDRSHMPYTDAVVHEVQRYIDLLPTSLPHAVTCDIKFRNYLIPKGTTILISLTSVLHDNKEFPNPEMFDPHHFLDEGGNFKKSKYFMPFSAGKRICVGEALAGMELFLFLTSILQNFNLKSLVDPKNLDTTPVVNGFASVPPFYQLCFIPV

[7] = Pharmacokinetic analysis of plasma and liver levels in BALB/c mice
[8] = Hepatic metabolic stability in mouse liver microsomes; conditions: mouse LM, in the presence of NADPH
[9] = Influenza A virus, PR8, MDCK, 48 h

**Q.** With `CC(C)(C)N1CCC(NC(=O)c2ccc(C(F)(F)F)cc2Cl)CC1` [Compound 16, N-(1-(tert-Butyl)piperidin-4-yl)-2-chloro-4-(trifluoromethyl)benzamide] as the compound, how does the inhibition at 12.5 µM ([1]; H5N1, A549, 12.5 μM, read-out: H5N1 pseudotype assay % inhibition at 12.5 μM) read?
**A.** Its inhibition at 12.5 µM is 99%.

**Q.** What about the EC50 ([1]; H5N1, A549, read-out: H5N1 pseudotype assay EC50 (μM)) of the same compound?
**A.** The EC50 was 0.24 ± 0.09 µM.

**Q.** And the “percentage of compound remaining after 60 minutes” value [2]?
**A.** The value was 97%.

**Q.** What about the “EC30” value [3] of the same compound?
**A.** The value was 134 nM.

**Q.** And the “EC40” value [3]?
**A.** The value was 160 nM.

**Q.** What about the “EC60” value [3] of the same compound?
**A.** Its value is 219 nM.

**Q.** What about the “EC70” value [3] of the same compound?
**A.** The value was 260 nM.

**Q.** And the “EC80” value [3]?
**A.** Its value is 321 nM.

**Q.** And the EC50 [3, 9]?
**A.** The EC50 was 187 nM.

**Q.** And the EC90 [3, 9]?
**A.** The EC90 was 439 nM.

**Q.** What about the IC50 [4] of the same compound?
**A.** Its IC50 is over 100000 nM.

**Q.** And the EC50 [5]?
**A.** The EC50 was 72 nM.

**Q.** And the IC50 [6]?
**A.** The IC50 was over 100000 nM.

**Q.** What about the Cmax ([7]; 5x the dose p.o. (50 mg/kg), plasma) of the same compound?
**A.** Its Cmax is 7641 ng/mL.

**Q.** And the “Cmax p.o. relative to i.p. (fold higher)” value ([7]; 5x the dose p.o. vs 10 mg/kg i.p., plasma)?
**A.** The value was 7 ×.

**Q.** And the oral bioavailability ([7]; BALB/c mice, p.o. vs i.p. Cmax)?
**A.** Its oral bioavailability is “excellent oral bioavailability”.

**Q.** And the Tmax ([7]; BALB/c, mouse, plasma, intraperitoneal, oral)?
**A.** Its Tmax is 30 min.

**Q.** And the “AUC(0-8 h)” value ([7]; i.p. (10 mg/kg), liver)?
**A.** Its value is 66400 ng·h/g.

**Q.** What about the T1/2 ([7]; i.p. (10 mg/kg), liver) of the same compound?
**A.** Its T1/2 is 148 min.

**Q.** What about the Tmax ([7]; i.p. (10 mg/kg), liver) of the same compound?
**A.** Its Tmax is 15 min.

**Q.** What about the “AUC(0-8 h)” value ([7]; i.p. (10 mg/kg), plasma) of the same compound?
**A.** The value was 3282 ng·h/g.

**Q.** And the T1/2 ([7]; i.p. (10 mg/kg), plasma)?
**A.** Its T1/2 is 91.8 min.

**Q.** What about the Tmax ([7]; i.p. (10 mg/kg), plasma) of the same compound?
**A.** Its Tmax is 30 min.

**Q.** What about the “AUC(0-8 h)” value ([7]; p.o. (50 mg/kg), liver) of the same compound?
**A.** Its value is 292000 ng·h/g.

**Q.** What about the T1/2 ([7]; p.o. (50 mg/kg), liver) of the same compound?
**A.** Its T1/2 is 155 min.

**Q.** And the Tmax ([7]; p.o. (50 mg/kg), liver)?
**A.** The Tmax was 60 min.

**Q.** And the “AUC(0-8 h)” value ([7]; p.o. (50 mg/kg), plasma)?
**A.** Its value is 23705 ng·h/g.

**Q.** And the T1/2 ([7]; p.o. (50 mg/kg), plasma)?
**A.** Its T1/2 is 130 min.

**Q.** And the Tmax ([7]; p.o. (50 mg/kg), plasma)?
**A.** Its Tmax is 30 min.

**Q.** What about the Cmax ([7]; read-out: Cmax level in the plasma, 10 mg/kg i.p.) of the same compound?
**A.** Its Cmax is 3.12 µM.

**Q.** And the “percentage of compound remaining after 60 minutes” value [8]?
**A.** The value was 94%.
